These results are taken from patent publication US20080076824A1, “Compounds That Inhibit Replication Of Human Immunodeficiency Virus” (priority 2004, published 2008).

Counter-ions that a name gives are not always drawn. Like-named read-outs stand apart in the source and are kept apart here. Residues, ends and D or L forms follow the SMILES beside them. Bounds are passed on as bounds.

A short description of data set [1]: Cytotoxicity (CC50) in MT-4 cells. Particulars: human, MT-4 cells. It is filed as cell-based.
Data set [2] deals with Reovirus-1. Particulars: read-out: Minimum inhibitory concentration Reovirus-1; Vero; reduces virus-induced cytopathogenicity by 50%. For orientation: Protection from cytopathic effect is a common read-out in antiviral testing.
Data set [3] has as its system MT-4 cells. The experiment in a line: Cytotoxicity (CC50) in MT-4 cells. Type of data set: cell-based.
Data set [4] relates to HIV-1 (IIIB).
The test system of data set [5] is Herpes simplex virus-2 (G). Particulars: read-out: Minimum inhibitory concentration Herpes simplex virus-2 (G); HEL; reduces virus-induced cytopathogenicity by 50%.
Data set [6] has as its system HIV-1. Particulars: for anti-HIV activity in the presence of IlePyr: 200 and 500 μM IlePyr, in words.
The subject of data set [7] is Sindbis virus. The conditions noted are these: read-out: Minimum inhibitory concentration Sindbis virus; Vero; reduces virus-induced cytopathogenicity by 50%.
In data set [8] the test system is Parainfluenza-3 virus. Particulars: read-out: Minimum inhibitory concentration Parainfluenza-3 virus; Vero; reduces virus-induced cytopathogenicity by 50%.
In data set [9] the test system is HIV-1 (NL4.3). Particulars: read-out: EC50 HIV-1 NL3.4; CEM cell cultures, syncytia formation. The method, then:
(§1) Human T-lymphocytic CEM cells (4.5×10^5 cells per ml) were suspended in fresh cell culture medium and infected with HIV-1 (IIIB and NL4.3) or HIV-2 (ROD or EHO) at 100 CCID50 (1 CCID50 being the virus dose infective for 50% of the cell cultures) per ml of cell suspension. Then, 100 μl of the infected cell suspension were transferred to microplate wells, mixed with 100 μl of appropriate (freshly prepared) dilutions of the test compounds (i.e., at final concentrations of […]), and were further incubated at 37° C. After 4 to 5 days, giant cell formation was recorded microscopically in the CEM cell cultures.

Data set [10] has as its system HIV-2 (EHO). Particulars: read-out: EC50 HIV-2 EHO; CEM cell cultures, syncytia formation. Here is the method:
as §1

The test system of data set [11] is Vesicular stomatitis virus. Particulars: read-out: Minimum inhibitory concentration Vesicular stomatitis virus; HEL; reduces virus-induced cytopathogenicity by 50%.
The mark [12] stands for this setting: read-out: 50% effective concentration, HIV replication in CEM cell cultures.
Setting [13] is: read-out: EC50 (CEM) HIV-1 (IIIB), Table 19.
The mark [14] stands for this setting: read-out: EC50 HIV-1 IIIB, CEM cell cultures, syncytia formation, Table 1.

The term CC50 denotes the concentration at which the toxic effect on the cells reaches its halfway point. Read a low CC50 as greater toxicity to the cells.

Regarding `NC(=O)C(N)O` (stereo not drawn) [AlphaHGA, α-Hydroxy-glycinamide hydrochloride], the CC50 in data set [1] amounted to 372 ± 107 µM.
Regarding `NCC(N)=O` [G-NH2, glycinamide], the EC50 was > 2000 µM in [2]; ~30 µM in [4] (setting [12]); 25 ± 7.1 µM in [4] (setting [13]); 25 ± 7.1 µM in data set [4] (read-out: EC50 (CEM) HIV-1(IIIB), Table 20); 32 ± 7.6 µM in data set [4] (setting [14]); ~21.3 µM in data set [4] (read-out: EC50 against HIV-1(IIIB), CEM cell cultures, Table 2). The EC50 in data set [4] (read-out: EC50 against HIV-1(IIIB), CEM cell cultures, Table 2, listed as Glycinamide) was 21.3 ± 16.3 µM; in data set [5] it was > 2000 µM; in data set [6] (CEM cell cultures, presence of 200 and 500 μM of IlePyr), 35 to 43 µM; in [7] it was > 2000 µM; in data set [8] it was > 2000 µM; in data set [9], 45 ± 7.1 µM. Further, the results for the EC50 in data set [10] and in data set [11] were 37 ± 5.8 µM and > 2000 µM, respectively. The CC50 in [3] is > 2000 µM. Further, the “ability to inhibit the replication of HIV” value in data set [4] (G-NH2 in medium with heat inactivated serum (10% fetal bovine serum, 95° C., 30 minutes)) is “lost its ability to inhibit the replication of HIV”. In addition, the “inhibition of replication of HIV” value in data set [4] (boiled fetal bovine serum or human serum samples, results the experiments will show) is given as “does not”. For the same compound, the “anti-HIV activity in the presence of IlePyr” value in data set [6] is “fully preserved its anti-HIV activity”.
On to `NCC(=O)N1CCC[C@H]1C(=O)NCC(N)=O` [GPG-NH2, glycylprolylglycinamide] (H-Gly-Pro-Gly-NH2), for which the EC50 in [2] was > 400 µM; in data set [4] (setting [12]), ~30 µM; in data set [4] (setting [13]) it was 30 µM; in data set [4] (setting [14]), 35 ± 8.7 µM; in [5], > 400 µM; in data set [7] it was > 400 µM. Moreover, the EC50 in [8] is > 400 µM; in data set [9], 50 µM; in data set [10], 42 ± 14 µM; in [11] it was > 400 µM. Besides, the “anti-HIV activity in the presence of IlePyr” value in [6] is “markedly lost its inhibitory activity”.
